According to patent US20260176320A1, “MODULATORS OF G-PROTEIN COUPLED RECEPTORS” (priority 2018, published 2026):
Read-outs that look alike come from different tables or passages of the source.

Key:
Format in all cases: cell-based
GIP-R = target: T1, GIP-R (Homo sapiens, UniProt P48546); test: HitHunter cAMP assay (GIP-R); settings: cAMP; for Emax: read-out: (Emax) GIP-R
T1 sequence (P48546 22-466): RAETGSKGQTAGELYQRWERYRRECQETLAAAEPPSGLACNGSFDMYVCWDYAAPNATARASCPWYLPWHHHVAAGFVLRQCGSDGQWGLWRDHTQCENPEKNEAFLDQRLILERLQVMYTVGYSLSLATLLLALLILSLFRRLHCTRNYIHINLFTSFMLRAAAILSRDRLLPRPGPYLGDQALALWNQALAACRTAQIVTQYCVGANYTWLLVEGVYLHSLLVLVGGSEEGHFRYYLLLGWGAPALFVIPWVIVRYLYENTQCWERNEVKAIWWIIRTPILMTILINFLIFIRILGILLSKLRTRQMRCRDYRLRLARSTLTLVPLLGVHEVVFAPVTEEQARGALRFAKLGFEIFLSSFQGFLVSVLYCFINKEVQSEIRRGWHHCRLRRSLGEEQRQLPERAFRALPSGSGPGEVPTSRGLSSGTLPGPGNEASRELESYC
In short: (§1)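 Agonist stimulation lasts 30 min at room temperature on 10,000 cells per well, with phosphodiesterase blocked by 625 μM IBMX. Accumulated cAMP is quantified by competitive antibody luminescence after overnight development.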

GLP-1R [1] = target: T2, GLP-1R (Homo sapiens, UniProt P43220); test: PathHunter β-arrestin assay
T2 sequence (P43220 24-463): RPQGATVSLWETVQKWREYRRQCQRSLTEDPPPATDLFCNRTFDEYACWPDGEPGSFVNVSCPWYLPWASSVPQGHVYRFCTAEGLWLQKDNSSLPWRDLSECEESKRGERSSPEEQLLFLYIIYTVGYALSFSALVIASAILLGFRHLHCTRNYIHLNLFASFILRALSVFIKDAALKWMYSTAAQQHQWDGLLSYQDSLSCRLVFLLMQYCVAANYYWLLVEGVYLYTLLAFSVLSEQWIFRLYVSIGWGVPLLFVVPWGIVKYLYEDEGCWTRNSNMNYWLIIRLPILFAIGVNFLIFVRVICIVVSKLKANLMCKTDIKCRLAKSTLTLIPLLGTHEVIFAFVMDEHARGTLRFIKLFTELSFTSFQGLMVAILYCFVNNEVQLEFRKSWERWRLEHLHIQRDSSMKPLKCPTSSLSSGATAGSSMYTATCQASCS
In short: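 Recruitment of β-arrestin is measured by luminescence after cells, plated overnight, receive serially diluted agonist for 90 min at 37 °C in medium with 0.2% BSA. Detection reagent then develops for 3 h at room temperature, protected from light.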

GLP-1R [2] = target: T2, GLP-1R; test: HitHunter cAMP assay (GLP-1R); settings: cAMP; for Emax: read-out: (Emax) GLP-1R
In short: as §1

[3] = Table 3, read-out: EC50 GIP-R/nM
[4] = Table 3A, read-out: EC50 GIP-R/nM
[5] = PathHunter β-arrestin assay, read-out: β-arrestin activity EC50
[6] = Table 3, read-out: EC50 GLP-1R/nM
[7] = Table 3A, read-out: EC50 GLP-1R/nM

With `CC[C@H](C)[C@H](NC(=O)[C@H](CO)NC(=O)[C@H](Cc1ccc(O)cc1)NC(=O)[C@H](CC(=O)O)NC(=O)[C@H](CO)NC(=O)[C@@H](NC(=O)[C@H](Cc1ccccc1)NC(=O)[C@@H](NC(=O)CNC(=O)[C@H](CCC(=O)O)NC(=O)[C@H]1CC[C@H](C(=O)NCCN2C(=O)CSC2=O)CC1)[C@@H](C)O)[C@@H](C)O)C(=O)N[C@@H](Cc1ccc(O)cc1)C(=O)N[C@@H](CC(C)C)C(=O)N[C@@H](CC(=O)O)C(=O)N[C@@H](CCCCN)C(=O)N[C@@H](CCC(N)=O)C(=O)N[C@@H](C)C(=O)N[C@@H](C)C(=O)NC(C)(C)C(=O)N[C@@H](CCC(=O)O)C(=O)N[C@@H](Cc1ccccc1)C(=O)N[C@H](C(=O)N[C@@H](CC(N)=O)C(=O)N[C@@H](Cc1c[nH]c2ccccc12)C(=O)N[C@@H](CC(C)C)C(=O)N[C@@H](CC(C)C)C(=O)N[C@@H](C)C(=O)NCC(=O)NCC(=O)N1CCC[C@H]1C(=O)N[C@@H](CO)C(=O)N[C@@H](CO)C(=O)NCC(=O)N[C@@H](C)C(=O)N1CCC[C@H]1C(=O)N1CCC[C@H]1C(=O)N1CCC[C@H]1C(=O)N[C@@H](CO)C(=O)N[C@@H](CCCCN)C(N)=O)C(C)C` [Compound 183] the EC50 (GIP-R; [3]) was > 1000 nM, the EC50 (GIP-R; [4]) was > 1000 nM and the Emax at 1 µM (GIP-R; read-out: (Emax) GIP-R at 1 μM, Table 3, at 1 μM) was 1.4%. For the same compound, the EC50 (GLP-1R [1]; [5]) was > 1000 nM, the Emax (GLP-1R [2]; Table 3) was 95% and the EC50 (GLP-1R [2]; [6]) was 10 to 100 nM. It also gave an Emax (GLP-1R [2]; Table 3A) of 95% and an EC50 (GLP-1R [2]; [7]) of 10 to 100 nM.
`CCCCCCCCCCCCCCCC(=O)N[C@@H](CCC(=O)NCCCC[C@H](NC(=O)[C@H](CO)NC(=O)[C@@H]1CCCN1C(=O)[C@@H]1CCCN1C(=O)[C@@H]1CCCN1C(=O)[C@H](C)NC(=O)CNC(=O)[C@H](CO)NC(=O)[C@H](CO)NC(=O)[C@@H]1CCCN1C(=O)CNC(=O)CNC(=O)[C@H](C)NC(=O)[C@H](CC(C)C)NC(=O)[C@H](CC(C)C)NC(=O)[C@H](Cc1c[nH]c2ccccc12)NC(=O)[C@H](CC(N)=O)NC(=O)[C@@H](NC(=O)[C@H](Cc1ccccc1)NC(=O)[C@H](CCC(=O)O)NC(=O)C(C)(C)NC(=O)[C@H](C)NC(=O)[C@H](C)NC(=O)[C@H](CCC(N)=O)NC(=O)[C@H](CCCCN)NC(=O)[C@H](CC(=O)O)NC(=O)[C@H](CC(C)C)NC(=O)[C@H](Cc1ccc(O)cc1)NC(=O)[C@@H](NC(=O)[C@H](CO)NC(=O)[C@H](Cc1ccc(O)cc1)NC(=O)[C@H](CC(=O)O)NC(=O)[C@H](CO)NC(=O)[C@@H](NC(=O)[C@H](Cc1ccccc1)NC(=O)[C@@H](NC(=O)CNC(=O)[C@H](CCC(=O)O)NC(=O)CN(C)C(=O)CN1CCCCC1=O)[C@@H](C)O)[C@@H](C)O)[C@@H](C)CC)C(C)C)C(N)=O)C(=O)O` [Compound 205] was tested, and the Emax (GIP-R; Table 3A) was 61%, the EC50 (GIP-R; [4]) was 1 to 10 nM and the EC50 (GLP-1R [1]; [5]) was > 1000 nM. The EC50 (GLP-1R [2]; [7]) was < 0.1 nM.
With `CCCCCCCCCCCCCCCC(=O)N[C@@H](CCC(=O)NCCCC[C@H](NC(=O)[C@H](CO)NC(=O)[C@@H]1CCCN1C(=O)[C@@H]1CCCN1C(=O)[C@@H]1CCCN1C(=O)[C@H](C)NC(=O)CNC(=O)[C@H](CO)NC(=O)[C@H](CO)NC(=O)[C@@H]1CCCN1C(=O)CNC(=O)CNC(=O)[C@H](C)NC(=O)[C@H](CC(C)C)NC(=O)[C@H](CC(C)C)NC(=O)[C@H](Cc1c[nH]c2ccccc12)NC(=O)[C@H](CC(N)=O)NC(=O)[C@@H](NC(=O)[C@H](Cc1ccccc1)NC(=O)[C@H](CCC(=O)O)NC(=O)C(C)(C)NC(=O)[C@H](C)NC(=O)[C@H](C)NC(=O)[C@H](CCC(N)=O)NC(=O)[C@H](CCCCN)NC(=O)[C@H](CC(=O)O)NC(=O)[C@H](CC(C)C)NC(=O)[C@H](Cc1ccc(O)cc1)NC(=O)[C@@H](NC(=O)[C@H](CO)NC(=O)[C@H](Cc1ccc(O)cc1)NC(=O)[C@H](CC(=O)O)NC(=O)[C@H](CO)NC(=O)[C@@H](NC(=O)[C@H](Cc1ccccc1)NC(=O)[C@@H](NC(=O)CNC(=O)[C@H](CCC(=O)O)NC(=O)CSCC(=O)NCCN1CC[C@@H](OC)C1=O)[C@@H](C)O)[C@@H](C)O)[C@@H](C)CC)C(C)C)C(N)=O)C(=O)O` [Compound 11] the EC50 (GIP-R; EC50 GIP-R/nM, Table 3) was 1 to 10 nM, the EC50 (GIP-R; EC50 GIP-R/nM, Table 3A) was 1 to 10 nM and the Emax (GIP-R; Table 3) was 39%. For the same compound, the Emax (GIP-R; Table 3A) was 39%, the EC50 (GLP-1R [1]) was > 1000 nM and the EC50 (GLP-1R [2]; EC50 GLP-1R/nM, Table 3) was 0.1 to 1 nM. It also gave an EC50 (GLP-1R [2]; EC50 GLP-1R/nM, Table 3A) of 0.1 to 1 nM, an Emax (GLP-1R [2]; Table 3) of 96% and an Emax (GLP-1R [2]; Table 3A) of 96%.
For `CC[C@H](C)[C@H](NC(=O)[C@H](CO)NC(=O)[C@H](Cc1ccc(O)cc1)NC(=O)[C@H](CC(=O)O)NC(=O)[C@H](CO)NC(=O)[C@@H](NC(=O)[C@H](Cc1ccccc1)NC(=O)[C@@H](NC(=O)CNC(=O)[C@H](CCC(=O)O)NC(=O)C(C)(C)C(=O)NCCn1ncc2ccccc2c1=O)[C@@H](C)O)[C@@H](C)O)C(=O)N[C@@H](Cc1ccc(O)cc1)C(=O)N[C@@H](CC(C)C)C(=O)N[C@@H](CC(=O)O)C(=O)N[C@@H](CCCCN)C(=O)N[C@@H](CCC(N)=O)C(=O)N[C@@H](C)C(=O)N[C@@H](C)C(=O)NC(C)(C)C(=O)N[C@@H](CCC(=O)O)C(=O)N[C@@H](Cc1ccccc1)C(=O)N[C@H](C(=O)N[C@@H](CC(N)=O)C(=O)N[C@@H](Cc1c[nH]c2ccccc12)C(=O)N[C@@H](CC(C)C)C(=O)N[C@@H](CC(C)C)C(=O)N[C@@H](C)C(=O)NCC(=O)NCC(=O)N1CCC[C@H]1C(=O)N[C@@H](CO)C(=O)N[C@@H](CO)C(=O)NCC(=O)N[C@@H](C)C(=O)N1CCC[C@H]1C(=O)N1CCC[C@H]1C(=O)N1CCC[C@H]1C(=O)N[C@@H](CO)C(=O)N[C@@H](CCCCN)C(N)=O)C(C)C` [Compound 116], the EC50 (GIP-R; EC50 GIP-R/nM, Table 3) was 10 to 100 nM, the EC50 (GIP-R; EC50 GIP-R/nM, Table 3A) was 10 to 100 nM and the Emax (GIP-R; Table 3) was 50%. For the same compound, the Emax (GIP-R; Table 3A) was 50%, the EC50 (GLP-1R [1]) was > 1000 nM and the EC50 (GLP-1R [2]; EC50 GLP-1R/nM, Table 3) was < 0.1 nM. For the same compound, the EC50 (GLP-1R [2]; EC50 GLP-1R/nM, Table 3A) was < 0.1 nM, the Emax (GLP-1R [2]; Table 3) was 98% and the Emax (GLP-1R [2]; Table 3A) was 98%.
In the case of `CCCCCCCCCCCCCCCC(=O)N[C@@H](CCC(=O)NCCCC[C@H](NC(=O)[C@H](CO)NC(=O)[C@@H]1CCCN1C(=O)[C@@H]1CCCN1C(=O)[C@@H]1CCCN1C(=O)[C@H](C)NC(=O)CNC(=O)[C@H](CO)NC(=O)[C@H](CO)NC(=O)[C@@H]1CCCN1C(=O)CNC(=O)CNC(=O)[C@H](C)NC(=O)[C@H](CC(C)C)NC(=O)[C@H](CC(C)C)NC(=O)[C@H](Cc1c[nH]c2ccccc12)NC(=O)[C@H](CC(N)=O)NC(=O)[C@@H](NC(=O)[C@H](Cc1ccccc1)NC(=O)[C@H](CCC(=O)O)NC(=O)C(C)(C)NC(=O)[C@H](C)NC(=O)[C@H](C)NC(=O)[C@H](CCC(N)=O)NC(=O)[C@H](CCCCN)NC(=O)[C@H](CC(=O)O)NC(=O)[C@H](CC(C)C)NC(=O)[C@H](Cc1ccc(O)cc1)NC(=O)[C@@H](NC(=O)[C@H](CO)NC(=O)[C@H](Cc1ccc(O)cc1)NC(=O)[C@H](CC(=O)O)NC(=O)[C@H](CO)NC(=O)[C@@H](NC(=O)[C@H](Cc1ccccc1)NC(=O)[C@@H](NC(=O)CNC(=O)[C@H](CCC(=O)O)NC(=O)CSCC(=O)NCCN1CC(=O)N(C)CC1=O)[C@@H](C)O)[C@@H](C)O)[C@@H](C)CC)C(C)C)C(N)=O)C(=O)O` [Compound 12], the Emax (GIP-R; Table 3) is reported as 85%, the EC50 (GIP-R; [3]) is reported as 0.1 to 1 nM and the Emax (GIP-R; Table 3A) is reported as 85%. For the same compound, the EC50 (GIP-R; [4]) was 0.1 to 1 nM, the EC50 (GLP-1R [1]; [5]) was > 1000 nM and the Emax (GLP-1R [2]; Table 3) was 91%. The EC50 (GLP-1R [2]; [6]) was 1 to 10 nM, the Emax (GLP-1R [2]; Table 3A) was 91% and the EC50 (GLP-1R [2]; [7]) was 1 to 10 nM.
`CC[C@H](C)[C@H](NC(=O)[C@H](CO)NC(=O)[C@H](Cc1ccc(O)cc1)NC(=O)[C@H](CC(=O)O)NC(=O)[C@H](CO)NC(=O)[C@@H](NC(=O)[C@H](Cc1ccccc1)NC(=O)[C@@H](NC(=O)CNC(=O)[C@H](CCC(=O)O)NC(=O)CSCC(=O)NCCN1C(=O)c2cccc3cccc(c23)C1=O)[C@@H](C)O)[C@@H](C)O)C(=O)N[C@@H](Cc1ccc(O)cc1)C(=O)N[C@@H](CC(C)C)C(=O)N[C@@H](CC(=O)O)C(=O)N[C@@H](CCCCN)C(=O)N[C@@H](CCC(N)=O)C(=O)N[C@@H](C)C(=O)N[C@@H](C)C(=O)NC(C)(C)C(=O)N[C@@H](CCC(=O)O)C(=O)N[C@@H](Cc1ccccc1)C(=O)N[C@H](C(=O)N[C@@H](CC(N)=O)C(=O)N[C@@H](Cc1c[nH]c2ccccc12)C(=O)N[C@@H](CC(C)C)C(=O)N[C@@H](CC(C)C)C(=O)N[C@@H](C)C(=O)NCC(=O)NCC(=O)N1CCC[C@H]1C(=O)N[C@@H](CO)C(=O)N[C@@H](CO)C(=O)NCC(=O)N[C@@H](C)C(=O)N1CCC[C@H]1C(=O)N1CCC[C@H]1C(=O)N1CCC[C@H]1C(=O)N[C@@H](CO)C(=O)N[C@@H](CCCCN)C(N)=O)C(C)C` [Compound 158] showed an Emax (GIP-R; Table 3) of 104 to 107%, an EC50 (GIP-R; [3]) of 0.1 to 1 nM and an Emax (GIP-R; Table 3A) of 104 to 107%. For the same compound, the EC50 (GIP-R; [4]) was 0.1 to 1 nM, the EC50 (GLP-1R [1]; [5]) was > 1000 nM and the Emax (GLP-1R [2]; Table 3) was 31 to 38%. For the same compound, the EC50 (GLP-1R [2]; [6]) was 10 to 100 nM, the Emax (GLP-1R [2]; Table 3A) was 31 to 38% and the EC50 (GLP-1R [2]; [7]) was 10 to 100 nM.
